The subject of one assay is Tubulin. Kind of assay: Tubulin assay (turbidometric microtubule assembly). The format is biochemical. As to conditions: at 50 μM, absorbance at 340 nm, 37° C. The method, then:
Turbidometric assays of microtubule assembly were performed by incubating microtubule protein in cuvettes at 37° C. in a thermostatically controlled spectrophotometer measuring the change in absorbance at 340 nm over time. The microtubule protein was incubated with the each test compound at 0° C. and polymerisation was initiated by addition of 1 mM GTP, prior to heating to 37° C.

Assay [1] deals with PC3 (Prostate Cancer) cells. The experiment in a line: Cellular growth assay (MTT), PC3. The format is cell-based. The following applies: Homo sapiens, PC-3, 40 hr incubation, read-out: PC3 (inhibition of 50% of cellular growth). As to the method:
(§1) K562 (Chronic Myeloid Leukemia), PC3 (Prostate Cancer), and DU145 (Prostate Cancer) were obtained from the American Type Culture Collection (ATCC). K562 was grown in RPMI, with 10% FBS with Glutamx added. DU145 cells were cultured in DMED, with 10% FBS and Glutamx and MEM non-essential amino acids added. PC3 cells were grown in F12K medium, with 10% FBS and Glutamx and MEM non-essential amino acids added. All cells were grown at 37° C. in 5% CO2.

Assay [2] deals with K562 (Chronic Myeloid Leukemia) cells. Kind of assay: Cellular growth assay (MTT), K562. The format is cell-based. As to conditions: Homo sapiens, 40 hr incubation, read-out: K562 (inhibition of 50% of cellular growth). As to the method:
as §1

Another assay addresses TelJak3 (Homo sapiens, UniProt P52333). Kind of assay: Cellular growth assay (MTT), BaF3 TEL/JAK3 cells. The format is cell-based. The following applies: 40 hr incubation, read-out: TelJak3 (inhibition of 50% of cellular growth).
In a further assay the target is TelJak2 (Homo sapiens, UniProt O60674). Kind of assay: Cellular growth assay (MTT), BaF3 TEL/JAK2 cells. In kind it is cell-based. The following applies: 40 hr incubation, read-out: TelJak2 (inhibition of 50% of cellular growth).
TelJak2, sequence (O60674 with tags, fused parts or gaps): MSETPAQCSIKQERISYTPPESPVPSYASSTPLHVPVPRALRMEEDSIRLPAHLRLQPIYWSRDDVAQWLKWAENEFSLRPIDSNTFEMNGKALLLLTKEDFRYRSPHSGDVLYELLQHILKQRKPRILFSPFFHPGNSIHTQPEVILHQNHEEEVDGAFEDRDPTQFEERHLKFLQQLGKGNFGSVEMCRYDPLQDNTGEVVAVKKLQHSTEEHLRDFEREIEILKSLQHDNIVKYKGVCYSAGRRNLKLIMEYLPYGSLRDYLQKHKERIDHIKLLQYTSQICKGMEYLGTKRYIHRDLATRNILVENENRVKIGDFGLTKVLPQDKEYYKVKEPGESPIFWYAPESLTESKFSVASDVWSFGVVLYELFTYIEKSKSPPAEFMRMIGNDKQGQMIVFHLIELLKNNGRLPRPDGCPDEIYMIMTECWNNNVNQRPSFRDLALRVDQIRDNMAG
For assay [3], the system named is DU145 (Prostate Cancer) cells. Kind of assay: Cellular growth assay (MTT), DU145. The format is cell-based. As to conditions: Homo sapiens, DU-145, 40 hr incubation, read-out: DU145 (inhibition of 50% of cellular growth). The method, then:
as §1

TelJak3, sequence (P52333 with tags, fused parts or gaps): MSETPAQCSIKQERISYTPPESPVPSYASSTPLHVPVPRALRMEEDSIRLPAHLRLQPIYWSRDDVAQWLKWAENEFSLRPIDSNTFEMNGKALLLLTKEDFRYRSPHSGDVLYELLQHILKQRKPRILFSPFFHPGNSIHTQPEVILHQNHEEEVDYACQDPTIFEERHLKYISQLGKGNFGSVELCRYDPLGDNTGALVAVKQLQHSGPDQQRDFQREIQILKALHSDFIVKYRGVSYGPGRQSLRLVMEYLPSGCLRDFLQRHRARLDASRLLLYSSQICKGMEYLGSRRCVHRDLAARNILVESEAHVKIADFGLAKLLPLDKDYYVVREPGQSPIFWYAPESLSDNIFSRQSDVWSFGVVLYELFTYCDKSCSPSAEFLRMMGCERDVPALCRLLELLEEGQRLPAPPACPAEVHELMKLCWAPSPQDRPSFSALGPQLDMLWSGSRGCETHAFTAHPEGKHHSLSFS

`CCCC(Nc1cncc(-c2ccc(O)c(OC)c2)n1)c1cccc(OC)c1` (stereo not drawn): in the assay on Tubulin, the “Tubulin (inhibition of tubulin polymerisation)” value is reported as “+ (inhibited tubulin polymerisation by greater than 50% at 50 μM)”. For the same compound, the IC50 (in assay [1]; in assay [2]; at TelJak3; at TelJak2; in assay [3]) was not above 20 µM in each case.
As to `CCCC(Nc1cncc(-c2ccc(O)c(OC)c2)n1)c1ccc(Cl)cc1` (stereo not drawn), the “Tubulin (inhibition of tubulin polymerisation)” value in the assay with Tubulin is listed as “+ (inhibited tubulin polymerisation by greater than 50% at 50 μM)”. Further, the IC50 (in assay [1]; in assay [2]; at TelJak3; on TelJak2; in assay [3]) was not above 20 µM throughout.
Turning to `CCCC(Nc1cncc(-c2ccc(O)c(OC)c2)n1)c1ccc(C)cc1` (stereo not drawn), the “Tubulin (inhibition of tubulin polymerisation)” value in the assay on Tubulin is “+ (inhibited tubulin polymerisation by greater than 50% at 50 μM)”. The IC50 (in assay [1]; in assay [2]; at TelJak3; on TelJak2; in assay [3]) was not above 20 µM throughout.
For `CCCC(Nc1cncc(-c2ccc(O)c(OC)c2)n1)c1ccc(OC)cc1` (stereo not drawn), in the assay on Tubulin, the “Tubulin (inhibition of tubulin polymerisation)” value was “+ (inhibited tubulin polymerisation by greater than 50% at 50 μM)”. Further, the IC50 (in assay [1]; in assay [2]; on TelJak3; at TelJak2; in assay [3]) was not above 20 µM each time.
Take `CCCC(Nc1cncc(-c2ccc(O)c(OC)c2)n1)c1cccc(Cl)c1` (stereo not drawn): the “Tubulin (inhibition of tubulin polymerisation)” value in the assay with Tubulin is listed as “+ (inhibited tubulin polymerisation by greater than 50% at 50 μM)”. Further, the IC50 (in assay [1]; in assay [2]; at TelJak3; on TelJak2; in assay [3]) was not above 20 µM each time.
For the compound `CCCC(Nc1cncc(-c2ccc(O)c(OC)c2)n1)c1cccc(F)c1` (stereo not drawn), in the assay on Tubulin, the “Tubulin (inhibition of tubulin polymerisation)” value was “+ (inhibited tubulin polymerisation by greater than 50% at 50 μM)”. For the same compound, the IC50 (in assay [1]; in assay [2]; at TelJak3; at TelJak2; in assay [3]) was not above 20 µM in each case.
Turning to `CCCC(Nc1cncc(-c2ccc(O)c(OC)c2)n1)c1cccc(O)c1` (stereo not drawn), the “Tubulin (inhibition of tubulin polymerisation)” value with Tubulin is “+ (inhibited tubulin polymerisation by greater than 50% at 50 μM)”. Also, the IC50 in assay [1] is more than 20 µM; in assay [2], not above 20 µM; on TelJak3, not above 20 µM; on TelJak2 it was not above 20 µM; in assay [3], more than 20 µM.
For the compound `CCCC(Nc1cncc(-c2ccc(O)c(OC)c2)n1)c1cccc(C)c1` (stereo not drawn), the “Tubulin (inhibition of tubulin polymerisation)” value with Tubulin was “+ (inhibited tubulin polymerisation by greater than 50% at 50 μM)”. Besides, the IC50 (in assay [1]; in assay [2]; on TelJak3; at TelJak2; in assay [3]) was not above 20 µM throughout.
In the case of `COc1cc(-c2cncc(NC(CCO)c3ccccc3)n2)ccc1O` (stereo not drawn), the IC50 was more than 20 µM in assay [1]; more than 20 µM in assay [2]; not above 20 µM on TelJak3; not above 20 µM on TelJak2; more than 20 µM in assay [3].
`CCCC(Nc1cncc(-c2ccc(O)c(OC)c2)n1)c1ccc(N(CC)CC)cc1` (stereo not drawn): the IC50 in assay [1] was more than 20 µM; in assay [2], more than 20 µM; at TelJak3, not above 20 µM; on TelJak2, not above 20 µM; in assay [3] it was not above 20 µM.
Take `CCCC(Nc1cncc(-c2ccc(O)c(OC)c2)n1)c1ccc(OC)c(OC)c1` (stereo not drawn): the IC50 in assay [1] is more than 20 µM; in assay [2], not above 20 µM; at TelJak3 it was not above 20 µM; at TelJak2, not above 20 µM; in assay [3], not above 20 µM.
Consider `CCCC(Nc1cncc(-c2ccc(N)c(OC)c2)n1)c1ccc(F)cc1` (stereo not drawn), for which the “Tubulin (inhibition of tubulin polymerisation)” value in the assay on Tubulin was “+ (inhibited tubulin polymerisation by greater than 50% at 50 μM)”. For the same compound, the IC50 (in assay [1]; in assay [2]; at TelJak3; on TelJak2; in assay [3]) was not above 20 µM throughout.
For `CCCC(Nc1cncc(-c2ccc(O)c(OC)c2)n1)c1cccc(N)c1` (stereo not drawn), the “Tubulin (inhibition of tubulin polymerisation)” value in the assay with Tubulin is listed as “+ (inhibited tubulin polymerisation by greater than 50% at 50 μM)”. The IC50 in assay [1] was not above 20 µM; in assay [2], not above 20 µM; at TelJak3 it was not above 20 µM; on TelJak2, not above 20 µM; in assay [3], more than 20 µM.
In the case of `CCC[C@H](Nc1cncc(-c2ccc(O)c(OC)c2)n1)c1cccnc1`, the “Tubulin (inhibition of tubulin polymerisation)” value in the assay on Tubulin is reported as “+ (inhibited tubulin polymerisation by greater than 50% at 50 μM)”. In addition, the IC50 (in assay [1]; in assay [2]; on TelJak3; at TelJak2; in assay [3]) was not above 20 µM throughout.
For the compound `CCCC(Nc1nc(-c2ccc(O)c(OC)c2)cnc1C)c1ccccc1` (stereo not drawn), the “Tubulin (inhibition of tubulin polymerisation)” value in the assay on Tubulin is on record as “+ (inhibited tubulin polymerisation by greater than 50% at 50 μM)”. For the same compound, the IC50 (in assay [1]; in assay [2]; on TelJak3; at TelJak2; in assay [3]) was not above 20 µM each time.
As to `CCCC(Nc1cncc(-c2ccc(O)c(OC)c2)n1)c1cccc(C(=O)OC)c1` (stereo not drawn), the “Tubulin (inhibition of tubulin polymerisation)” value in the assay on Tubulin is listed as “+ (inhibited tubulin polymerisation by greater than 50% at 50 μM)”. The IC50 (in assay [1]; in assay [2]; at TelJak3; at TelJak2; in assay [3]) was not above 20 µM in each case.
For `CCCC(Nc1cncc(-c2ccc(O)c(OC)c2)n1)c1cccc(NC(=O)c2cccnc2)c1` (stereo not drawn), in the assay on Tubulin, the “Tubulin (inhibition of tubulin polymerisation)” value is “+ (inhibited tubulin polymerisation by greater than 50% at 50 μM)”. Moreover, the IC50 (in assay [1]; in assay [2]; on TelJak3; on TelJak2; in assay [3]) was not above 20 µM each time.
`CCCC(Nc1cncc(-c2ccc(O)c(OC)c2)n1)c1cc(F)cc(F)c1` (stereo not drawn): in the assay on Tubulin, the “Tubulin (inhibition of tubulin polymerisation)” value is listed as “+ (inhibited tubulin polymerisation by greater than 50% at 50 μM)”. The IC50 in assay [1] is more than 20 µM; in assay [2], not above 20 µM; at TelJak3, not above 20 µM; at TelJak2, not above 20 µM; in assay [3] it was more than 20 µM.
In the case of `CCCC(Nc1cncc(-c2ccc(O)c(OC)c2)n1)c1cncc(C)c1` (stereo not drawn), in the assay on Tubulin, the “Tubulin (inhibition of tubulin polymerisation)” value is reported as “+ (inhibited tubulin polymerisation by greater than 50% at 50 μM)”. In addition, the IC50 in assay [1] was not above 20 µM; in assay [2], not above 20 µM; at TelJak3 it was not above 20 µM; on TelJak2 it was not above 20 µM; in assay [3], more than 20 µM.
On to `CCC[C@H](Nc1cncc(-c2ccc(N)c(OC)c2)n1)c1ccccc1`, for which the “Tubulin (inhibition of tubulin polymerisation)” value in the assay with Tubulin is recorded as “+ (inhibited tubulin polymerisation by greater than 50% at 50 μM)”. Moreover, the IC50 (in assay [1]; in assay [2]; on TelJak3; at TelJak2; in assay [3]) was not above 20 µM each time.
For `CCCC(Nc1cncc(-c2ccc(N)c(OC)c2)n1)c1cccnc1` (stereo not drawn), the “Tubulin (inhibition of tubulin polymerisation)” value in the assay with Tubulin is “+ (inhibited tubulin polymerisation by greater than 50% at 50 μM)”. Further, the IC50 (in assay [1]; in assay [2]; on TelJak3; at TelJak2; in assay [3]) was not above 20 µM in each case.
In the case of `CCCC(Nc1cncc(-c2ccc(O)c(OC(C)C)c2)n1)c1cccnc1` (stereo not drawn), in the assay on Tubulin, the “Tubulin (inhibition of tubulin polymerisation)” value was “+ (inhibited tubulin polymerisation by greater than 50% at 50 μM)”. Moreover, the IC50 (in assay [1]; in assay [2]; at TelJak3; at TelJak2; in assay [3]) was not above 20 µM in each case.
Turning to `COCCC(Nc1cncc(-c2ccc(O)c(OC)c2)n1)c1ccccc1` (stereo not drawn), the “Tubulin (inhibition of tubulin polymerisation)” value with Tubulin is on record as “+ (inhibited tubulin polymerisation by greater than 50% at 50 μM)”. In addition, the IC50 (in assay [1]; in assay [2]; at TelJak3; at TelJak2; in assay [3]) was not above 20 µM throughout.
On to `CCCC(Nc1cnc(C)c(-c2ccc(N)c(OC)c2)n1)c1ccccc1` (stereo not drawn), for which the “Tubulin (inhibition of tubulin polymerisation)” value in the assay on Tubulin is reported as “+ (inhibited tubulin polymerisation by greater than 50% at 50 μM)”. Moreover, the IC50 (in assay [1]; in assay [2]; on TelJak3; on TelJak2; in assay [3]) was not above 20 µM throughout.
Consider `CCCC(Nc1nc(-c2ccc(N)c(OC)c2)cnc1C)c1ccccc1` (stereo not drawn), for which the “Tubulin (inhibition of tubulin polymerisation)” value in the assay on Tubulin is “+ (inhibited tubulin polymerisation by greater than 50% at 50 μM)”. In addition, the IC50 (in assay [1]; in assay [2]; at TelJak3; on TelJak2; in assay [3]) was not above 20 µM each time.

Values taken from patent publication US8084456B2, “Pyrazine-based tubulin inhibitors” (YM Biosciences Australia Pty Ltd, priority 2002, dated 2011).
